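These data come from cells grown in 96-well plates and exposed to compound for 48 hours at five concentrations. Abbreviation: GI50, concentration required for 50% inhibition of growth. TGI marks complete inhibition of growth.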
How the values were obtained:
Assay in all cases: NCI tumour cell line growth inhibition, 48 h
HCC-2998 colon = system: HCC-2998 colon
RXF 393 renal = system: RXF 393 renal
SR leukemia = system: SR leukemia
K-562 leukemia = system: K-562 leukemia
OVCAR-4 ovarian = system: OVCAR-4 ovarian
CAKI-1 renal = system: CAKI-1 renal
HCT-116 colon = system: HCT-116 colon
UO-31 renal = system: UO-31 renal
A498 renal = system: A498 renal
CCRF-CEM leukemia = system: CCRF-CEM leukemia

Row | Compound | GI50 (HCC-2998 colon) [µM] | TGI (HCC-2998 colon) [µM] | GI50 (RXF 393 renal) [µM] | TGI (RXF 393 renal) [µM] | GI50 (SR leukemia) [µM] | TGI (SR leukemia) [µM] | GI50 (K-562 leukemia) [µM] | TGI (K-562 leukemia) [µM] | GI50 (OVCAR-4 ovarian) [µM] | TGI (OVCAR-4 ovarian) [µM] | GI50 (CAKI-1 renal) [µM] | TGI (CAKI-1 renal) [µM] | GI50 (HCT-116 colon) [µM] | TGI (HCT-116 colon) [µM] | GI50 (UO-31 renal) [µM] | TGI (UO-31 renal) [µM] | GI50 (A498 renal) [µM] | TGI (A498 renal) [µM] | GI50 (CCRF-CEM leukemia) [µM] | TGI (CCRF-CEM leukemia) [µM]
1 | COc1ccc(-n2cc(-c3cc(OC)c(OC)c(OC)c3)c(C(=O)C(F)(F)F)c2C)cc1 | > 100 | > 100 | > 100 | > 100 | 4.54 | > 100 | 22 | > 100 | 9.28 | > 100 | 73.8 | > 100 | 6.93 | > 100 | 4.6 | > 100 | 6.4 | > 100 | 16.1 | > 100
2 | COc1ccc2c3c([nH]c2c1[N+](=O)[O-])C(C)=NCC3 | – | > 100 | – | > 100 | – | > 100 | – | > 100 | – | > 100 | – | > 100 | – | > 100 | – | > 100 | – | > 100 | – | > 100
3 | COC(=O)C1=C(O)c2cc(OC)c(OC)cc2C(c2ccc(OC)c(OC)c2)C1 (centres undefined) | – | > 100 | – | > 100 | – | > 100 | – | > 100 | – | > 100 | – | > 100 | – | > 100 | – | > 100 | – | 98.2 | – | > 100
4 | CC1=NNC(=O)C2CCC(=O)N12 (centres undefined) | – | > 100 | – | > 100 | – | > 100 | – | > 100 | – | > 100 | – | > 100 | – | > 100 | – | > 100 | – | > 100 | – | > 100
5 | NNC(=S)N/N=C(\CC1OC(=O)c2ccccc21)c1ccccc1O (centres undefined) | – | > 100 | – | 77.3 | – | 46.4 | – | > 100 | – | > 100 | – | > 100 | – | > 100 | – | > 100 | – | 95.4 | – | > 100
6 | COc1cc(C2CC(c3cccc(Br)c3)=NN2C(C)=O)cc(OC)c1OC (centres undefined) | 1.11 | 15.7 | 0.266 | 0.976 | 0.0402 | > 100 | 0.114 | 11.7 | 0.624 | > 100 | 0.282 | 54.1 | 0.479 | > 55.9 | 3.33 | > 65.6 | 0.514 | > 19.7 | 0.264 | 4.5
7 | CC(CCC=O)CCOCc1ccccc1 (centres undefined) | – | > 100 | – | > 100 | – | > 80.7 | – | > 100 | – | > 100 | – | > 60.8 | – | > 100 | – | > 100 | – | > 100 | – | > 84.2
8 | CCN1CCN(C(c2ccc(C(F)(F)F)cc2)c2ccc3cccnc3c2O)CC1 (centres undefined) | 0.88 | 12.2 | 3.2 | 16 | 0.835 | 11 | 3.49 | 14.6 | 2.36 | 14.3 | 2.55 | 9.36 | 3.06 | 13.5 | 1.59 | 9.04 | 2.31 | 14.1 | 1.45 | 7.85
9 | Clc1nc2ccccc2nc1CI | 19.1 | 35.9 | 3.08 | 11.7 | 0.638 | – | 1.74 | > 32.5 | 5.34 | 18.3 | 5.65 | 13.2 | 1.95 | 3.95 | 2.05 | 5.17 | 20.5 | 42.9 | 0.93 | 4.99
10 | C=C1CC[C@@H]2[C@](C)(COC(C)=O)[C@H](OC(C)=O)CC[C@@]2(C)[C@@H]1CC(Sc1ccccc1)C1=CCOC1=O (some centres undefined) | 2.1 | 4.07 | 1.62 | 3.12 | 0.553 | 3.66 | 0.699 | 3.69 | 1.36 | 3.11 | 2.77 | 11.5 | 0.854 | 2.18 | 1.2 | 2.53 | 2.3 | 14 | 0.266 | 1.19
11 | N#CC(=C1C=CC(=NO)C=C1)c1ccccc1 | 4.61 | 15 | 1.14 | 8.63 | 0.349 | 3.73 | 1.85 | 13.2 | 3.02 | 15.4 | 1.23 | 11.5 | 0.272 | 0.794 | 3.45 | 19 | 5.33 | 22.8 | 0.476 | 2.36
12 | CC(=O)c1cccc(NC(=O)C(=O)NNc2n[nH]c(=S)n2N)c1 | – | 27.5 | – | 24.1 | – | 16.1 | – | 27.6 | – | 23.4 | – | 34.4 | – | 12.8 | – | 22.6 | – | 37.7 | – | 20.3
13 | O=C(Cc1ccc(/C=C/C(=O)c2ncc[nH]2)cc1)Nc1cc(F)c(F)c(F)c1 | 3.57 | 7.03 | 3.06 | 6.56 | 2.16 | 13.3 | 2.31 | > 25 | 4.81 | > 25 | 3.68 | 7.05 | 2.04 | 5.38 | 3.36 | 6.56 | 4.34 | 9.98 | 2.79 | 13.9

From PubChem BioAssay (NCI)
